Results reported in patent US20240424148A1, “IN-VIVO PROXIMITY-BASED LABELING SYSTEMS AND APPLICATIONS THEREOF” (THE TRUSTEES OF PRINCETON UNIVERSITY, priority 2021, published 2024).

Test: Redox potentials (electrochemistry)
Assay type: physicochemical
Source text: This reduced species is poised to undergo single electron transfer (SET) to the aryl azide, 1 (Ep/2=−0.61 V vs Ag/AgCl), thereby regenerating the catalyst (3) (FIG. 15).
Furthermore, electrochemical reduction of the Sn-chlorin e6 catalyst generated a species with significant spectral overlap with the transient-absorption signal of the photoexcited catalyst in the presence of NADH, supporting the generation of the reduced ground state catalyst.

Which Ep/2 does the source give for `[N-]=[N+]=Nc1ccc(C(=O)O)cc1` [compound 1, 4-azidobenzoic acid] here?
Its Ep/2 is −0.61 V vs Ag/AgCl.
